Target: T1, human A1 adenosine receptor (Homo sapiens, UniProt P30542)
T1 construct: expressed in transfected cells; host or cells: COS7 or CHO cells
T1 sequence (P30542 1-326): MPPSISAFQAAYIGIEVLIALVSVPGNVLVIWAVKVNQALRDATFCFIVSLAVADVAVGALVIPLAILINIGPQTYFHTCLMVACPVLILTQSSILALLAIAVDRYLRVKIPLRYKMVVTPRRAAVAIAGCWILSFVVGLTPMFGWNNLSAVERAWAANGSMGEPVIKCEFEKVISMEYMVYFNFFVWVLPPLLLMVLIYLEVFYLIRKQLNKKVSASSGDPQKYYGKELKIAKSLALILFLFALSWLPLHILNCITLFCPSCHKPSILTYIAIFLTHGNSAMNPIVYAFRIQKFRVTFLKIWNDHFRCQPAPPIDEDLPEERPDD
Experiment: competition binding, recombinant human A1 adenosine receptor
Conditions: A3 versus A1
Method: Monolayer cell culture of transfected COS7 cells were dissociated with 1 mM EDTA in phosphate buffered saline and resuspended in 5 mM Tris, pH7.6/10 mM MgCl2. The cells were subjected to freeze-thaw lysis and the suspension was homogenized in a glass dounce homogenizer. The membranes were pelleted, resuspended in binding buffer, 50 mM Tris pH 7.6/10 mM MgCl2 and incubated with adenosine deaminase before the binding assay. The binding assay was performed by incubating 50-100 Fg of membranes with increasing concentrations of radiolabeled adenosine agonists. Bound ligand was separated from free ligand by filtration on a SKATRON CELL […] equipped with a receptor binding filtermat. Bound radioactivity was measured by scintillation counting. Substances which bind to or enhance binding to expressed human adenosine receptors in COS and CHO cells can be identified in competition binding assays with radiolabeled adenosine or xanthine analogs. […] Protein concentration was determined by tie method of Bradford ((1976) Anal. Biochem. 72: 248-250). […] Bound radioactivity was measured by scintillation counting in READY SAFE SCINTILLATION COCKTAIL (BECKMAN). […] Non-specific binding was determined in the presence of 100 FM CPA. Bound radioactivity was measured by scintillation counting in READY SAFE LIQUID SCINTILLATION COCKTAIL (BECKMAN).

fold selectivity for A3 compared to human A1: 47 fold
Structure (SMILES): CCCn1c(=O)c2[nH]c(-c3cccc(C=CC(=O)O)c3)nc2n(CCC)c1=O [BW-3911]
